Laboratory results: patent US8133903B2, “Methods of use of inhibitors of phosphodiesterases and modulators of nitric oxide, reactive oxygen species, and metalloproteinases in the treatment of peyronie's disease, arteriosclerosis and other fibrotic diseases” (Los Angeles Biomedical Research Institute at Harbor—UCLA …, priority 2003, dated 2012)

Legend:
Type in all cases: in vivo
[1] = tested on: arterial media of aged Brown Norway rats; assay: Aged rat arterial tree model, immunohistochemistry for iNOS, nitrotyrosine, Cu/Zn SOD, heme oxygenase I, PAI
Procedure: (§1) Arterial Tree Rodent Model. Young (3-month) and aged (22-24 month) male Brown Norway rats were obtained from the NIH/NIA colony (Harlan Sprague-Dawley, Inc., San Diego, Calif.), and maintained under controlled temperature and lighting. One half of the aged animals were treated for 3 weeks with L-NIL at 0.1 g/l in the drinking water, while the rest of the animals received plain drinking water. Animals were anesthetized, pretreated with heparin, and perfused through the left ventricle with saline followed by 4% formalin. The abdominal aorta, brachial and femoral neurovascular bundles as well as the penis, denuded of its skin, were removed and post-fixed overnight in 4% formalin, and washed and stored in PBS at 4 C until paraffin embedding.
(§2) The determinations of iNOS, nitrotyrosine, heme-oxygenase I, PAI-I (Davila et al., 2003b), manganese superoxide dismutase (MnSOD), and CuZn SOD (Cu/Zn SOD) (Martin et al., 1994) were carried out on 5 μm paraffin-embedded adjacent tissue sections, that. were quenched for endogenous peroxidase activity after deparaffinization and rehydration. Sections were blocked with normal goat serum, and incubated with polyclonal IgG antibodies against mouse iNOS (1:500) (Transduction Laboratories, Lexington, KT), nitrotyrosine (1:100) (Upstate, Lake Placid, N.Y.), Mn SOD and Cu/Zn SOD (Oxygen, Portland, Oreg.) (1:800 and 1:500 respectively), heme oxygenase I (Stressgen, San Diego, Calif.), or PAI-1 (Abcam Ltd, Cambridge, UK). For negative controls the first antibodies were replaced by IgG isotype. The detection was based on a secondary anti-rabbit biotinylated antibody (1:200) for iNOS and nytrotyrosine (Calbiochem, La Jolla, Calif.), or anti-sheep biotinylated antibody (1:200) for Cu/Zn and Mn SOD, followed by the ABC complex (1:100) (Calbiochem) and 3,3′ diaminobenzidine (spelling) (DAB) (Sigma, St Louis Mo.). Sections were counterstained with hematoxylin.
(§3) For iNOS, nitroyrosine, heme-oxygenase, PAI-1, MnSOD and Cu/Zn SOD determination, at least 6 sections per specimen were analyzed. Each slide assayed had its corresponding negative control. In certain cases, the number of immuno-positive cells was determined as a percentage of the total counterstained nuclei in a computerized grid. In the Masson staining, the ratio between SMC (red) and collagen fibers (blue) was obtained and expressed per area.

[2] = tested on: TGF-β1-induced fibrotic plaque in the rat tunica albuginea; assay: Nitrotyrosine and ROS marker (heme-oxygenase I) detection in the TA of the TGF-β1 rat model
Procedure: as §2
The studies with L-arginine detailed in Example 1 show modulation of the size of the PD plaque by NO. […]

[3] = tested on: collagen I promoter; assay: Collagen I promoter reporter plasmid (β-galactosidase, luminometry) injected into the rat PD-like plaque; details: L-NIL treated TGF-β1 rat, vs control TA
From the text: The effect of L-NIL in increasing collagen in the TA of the TGF-β1 rat model may be due to an increase in collagen synthesis, a decrease in its normal breakdown, or both. To determine whether the larger PD plaque in the L-NIL treated rat is due, at least in part, to an increase in collagen I synthesis (the most prevalent collagen protein in the TA), and not simply to the inhibition of collagenolysis by the MMPs, we injected a cDNA plasmid construct of the collagen I promoter driving the expression of a reporter gene (Magee et al., 2002a) into the site of the original TGF-β1 or saline injection, 10 days prior to sacrifice and 35 days after the TGF-β1 injection. This plasmid is an indicator of collagen I transcriptional activity within the rat PD plaque.

[4] = tested on: TGF-β1-induced fibrotic plaque in the rat tunica albuginea; assay: TGF-β1 rat model of Peyronie's disease, plaque and collagen deposition by Masson staining with QIA; details: long-term oral L-NIL, TGF-β1 injected rat
Procedure: TGF-β1 rat model. Male Fisher 344 rats, 9-11 month old purchased from the NIH/NIA colony (Harlan Sprague-Dawley, Inc., San Diego, Calif.) and maintained under controlled temperature and lighting, were anesthetized and injected in the penile TA at the middle of the penis with either vehicle only (saline, group 1) or 0.5 μg recombinant human TGF-β1 (Biotech Diagnostic, Laguna Niguel, Calif., groups 2-5) as disclosed (Ferrini et al., 2002; Vernet et al., 2002). After the injection, groups 1 and 2 were given drinking water while the other groups received water with L-arginine (2.25 g/kg/day, group 3) (Moody et al., 1997), or sildenafil (10 mg/kg/day, group 4) or pentoxifylline (10 mg/kg/day, group 5). Forty-five days later, or as indicated, animals were sacrificed and perfused through the left ventricle with saline followed by 4% formalin ((Ferrini et al., 2002; Vernet et al., 2002). After the penises were excised, the penile skin was denuded by removing the glans and adhering non-crural tissue. The penile shaft was separated from the crura and 2-3 mm transverse slices were cut around the site of the saline or TGF-β1 injection. All tissues were post-fixed overnight in 4% formalin, washed in PBS and stored at 4° C.
In the case of tissue sections, the determinations of the collagen/smooth muscle ratio were carried out with Masson trichrome (Ferrini et al., 2002; Davila et al., 2003b) on adjacent 5 μm paraffin-embedded cross-sections from the human normal tunical or plaque tissues, or from a 2 mm area around the site of injection in the rat saline- and TGF-β1-injected shaft tissues. Other distal sections were obtained along the rat penile shaft.
The quantitation of the staining obtained by either histochemical or immunohisto/cytochemical techniques was performed by computerized densitometry using the ImagePro 4.01 program (Media Cybernetics, Silver Spring, Md.), coupled to an Olympus BHS microscope equipped with a Spot RT digital camera or VCC video camera (Wang et al., 2001; Ferrini et al., 2001a, 2001b; Davila et al., 2003b).

[5] = tested on: SMC in the media of the penile resistance arteries; assay: Aged rat arterial tree model, TUNEL apoptosis in the media of the penile arteries; details: aged rats, L-NIL treatment
Procedure: as §1, §3

[6] = tested on: arterial media of aged Brown Norway rats; assay: Aged rat arterial tree model, Masson staining (SMC/collagen), intima/media thickness and lumen diameter; details: for intima media thickness / lumen diameter: OLD + L-NIL
Procedure: as §1
SMC and collagen fibers within the corporal tissue and vascular tree were estimated by Masson trichromic staining (Sigma Diagnostic, St. Louis, Mo.) (Ferrini et al., 2002; Vernet et al., 2002; Davila et al, […]) in sections adjacent to those used for immunohistochemical staining, followed by image analysis to measure the ratio between SMC (red) and collagen fibers (blue). The results were expressed as red/blue ratios per area (see below). In the arterial tree, the intima/media thickness (IMT), and the diameter of the lumen were also measured.
as §3

## CC(=N)NCCCC[C@H](N)C(=O)O [L-NIL, L-iminoethyl-L-lysine]
[1]; L-NIL
  effect on PAI expression in the aged media (quantitative image analysis): negligible
  expression of heme oxygenase I in the penile dorsal artery: did not induce a further significant change
  iNOS expression in the arterial media: reduction in iNOS expression
  peroxynitrite formation (nitrotyrosine) in the arterial media: reduction in peroxynitrite formation
[1]; L-NIL blockade of iNOS activity
  increase of Cu/Zn SOD (indirect marker of ROS), image analysis: 40 to 50%
[2]; iNOS activity blocked with L-NIL in the TGF-β1 rat model
  ROS levels: considerable elevation
[2]; long-term oral L-NIL, TGF-β1 injected rat
  peroxynitrite as indicated by nitrotyrosine formation in the TA: considerable increase
[3]
  expression of the reporter β-galactosidase driven by the collagen I promoter (luminometry in tissue extracts): considerably intensified
[4]
  expansion and thickening of the TA due to collagen fiber deposition: remarkable expansion and thickening of the TA
[5]
  apoptotic index, dorsal and bulbourethral penile arteries: reduction
[6]; aged rats, L-NIL for 3 weeks
  collagen fibers within the media of the aorta and the dorsal penile artery: further increase in the collagen fibers
[6]; aged rats, L-NIL, aorta, femoral, dorsal, with the exception of the bulbourethral artery
  amount of collagen within the media (SMC/collagen ratio, image analysis): further exacerbation in the amount of collagen
[6]; aorta
  intima media thickness: 85.2 ± 6.6 μm
[6]; bulbo urethral
  intima media thickness: 9.9 ± 0.7 μm
  lumen diameter: 47.3 ± 6.6 μm
[6]; femoral
  intima media thickness: 51.8 ± 4.6 μm
[6]; penile dorsal
  intima media thickness: 23.6 ± 3.3 μm
  lumen diameter: 105.5 ± 16. μm
